The text below walks through data of US20230257372A1 (CHONG KUN DANG PHARMACEUTICAL CORP., priority 2020, published 2023).

In one assay the target is T1, human recombinant HDAC6 (Homo sapiens, UniProt Q9UBN7).
T1 construct: purchased Calbiochem Inc. 382180
T1 sequence (Q9UBN7 1-1215): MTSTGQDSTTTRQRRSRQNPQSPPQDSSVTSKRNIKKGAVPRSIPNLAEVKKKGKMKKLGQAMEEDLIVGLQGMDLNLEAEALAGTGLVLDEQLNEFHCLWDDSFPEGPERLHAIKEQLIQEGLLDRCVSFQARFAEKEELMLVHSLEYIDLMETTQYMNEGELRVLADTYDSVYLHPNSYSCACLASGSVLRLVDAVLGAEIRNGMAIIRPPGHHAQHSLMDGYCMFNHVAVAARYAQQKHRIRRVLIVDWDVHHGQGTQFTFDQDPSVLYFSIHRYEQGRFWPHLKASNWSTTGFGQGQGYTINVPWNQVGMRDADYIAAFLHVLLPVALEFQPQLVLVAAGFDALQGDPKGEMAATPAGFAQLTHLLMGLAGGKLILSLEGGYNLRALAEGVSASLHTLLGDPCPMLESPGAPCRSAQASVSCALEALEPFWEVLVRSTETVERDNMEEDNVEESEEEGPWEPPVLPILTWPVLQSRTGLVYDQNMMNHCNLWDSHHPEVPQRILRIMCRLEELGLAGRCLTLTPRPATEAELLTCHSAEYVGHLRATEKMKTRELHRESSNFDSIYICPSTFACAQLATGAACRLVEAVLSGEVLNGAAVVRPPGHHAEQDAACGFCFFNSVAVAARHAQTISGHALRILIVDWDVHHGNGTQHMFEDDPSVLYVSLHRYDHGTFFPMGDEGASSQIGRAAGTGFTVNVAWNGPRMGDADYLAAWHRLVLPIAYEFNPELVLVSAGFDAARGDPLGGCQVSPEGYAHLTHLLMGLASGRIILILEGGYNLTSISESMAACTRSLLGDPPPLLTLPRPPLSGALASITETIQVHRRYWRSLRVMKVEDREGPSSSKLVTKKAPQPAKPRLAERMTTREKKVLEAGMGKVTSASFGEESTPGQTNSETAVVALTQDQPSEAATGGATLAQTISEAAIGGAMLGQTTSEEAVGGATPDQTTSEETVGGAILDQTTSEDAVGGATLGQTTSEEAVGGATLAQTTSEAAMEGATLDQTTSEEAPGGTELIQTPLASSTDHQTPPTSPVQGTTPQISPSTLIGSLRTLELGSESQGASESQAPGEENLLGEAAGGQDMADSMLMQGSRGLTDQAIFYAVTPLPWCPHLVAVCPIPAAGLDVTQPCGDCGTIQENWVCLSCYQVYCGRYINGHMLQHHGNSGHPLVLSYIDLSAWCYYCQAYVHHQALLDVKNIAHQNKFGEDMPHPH
As to the kind of experiment: HDAC6 enzyme activity inhibition (HDAC Fluorimetric Drug Discovery Kit). The class given is biochemical. The method, then: (§1) An experiment was conducted to identify the selectivity of the compound represented by formula I of the present invention to HDAC6 through an experiment on HDAC1 and HDAC6 enzyme activity inhibition.
(§2) A 5-fold dilution of the compound was divided into a 96-well plate, after which […] of the enzyme and 10 μM of the substrate were inserted into each well and subjected to reaction at 30° C. for 60 minutes, such that Fluor de Lys® Developer II (BML-KI176) was inserted thereinto and subjected to reaction for 30 minutes and finished.

The target in another assay is T2, human recombinant HDAC1 (Homo sapiens, UniProt Q13547).
T2 construct: purchased Enzo Life Science, Inc. BML-SE456
T2 sequence (Q13547 whole entry): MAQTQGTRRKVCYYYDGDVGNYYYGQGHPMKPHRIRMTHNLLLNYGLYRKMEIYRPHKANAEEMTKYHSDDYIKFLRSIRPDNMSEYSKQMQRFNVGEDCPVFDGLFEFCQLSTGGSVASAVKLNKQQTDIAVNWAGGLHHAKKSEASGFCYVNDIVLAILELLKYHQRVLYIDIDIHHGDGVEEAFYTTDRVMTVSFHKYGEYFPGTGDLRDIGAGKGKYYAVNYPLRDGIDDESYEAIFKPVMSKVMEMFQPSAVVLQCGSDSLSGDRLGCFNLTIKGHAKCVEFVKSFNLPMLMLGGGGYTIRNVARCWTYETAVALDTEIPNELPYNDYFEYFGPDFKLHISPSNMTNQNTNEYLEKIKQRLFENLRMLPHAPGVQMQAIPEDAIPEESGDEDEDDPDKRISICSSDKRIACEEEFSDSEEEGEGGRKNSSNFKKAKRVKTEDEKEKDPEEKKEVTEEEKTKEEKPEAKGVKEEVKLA
As to the kind of experiment: HDAC1 enzyme activity inhibition (HDAC Fluorimetric Drug Discovery Kit). The class given is biochemical. The following applies: read-out: HDAC1. The method, then:
as §1, §2

[1] abbreviates: human recombinant HDAC6, same protocol as HDAC1.
The mark [2] stands for this setting: human recombinant HDAC1, Fluor de Lys substrate, 30° C. 60 minutes.
Where [3] appears, read: human recombinant HDAC6, IC50 calculated with GraphPad Prism.
Setting [4] is: human recombinant HDAC1, IC50 calculated with GraphPad Prism.

Read-outs that look alike come from different tables or passages of the source. Bounds are passed on as bounds.

On to `CCN1CC(c2cccc(-c3cn(Cc4ccc(-c5nnc(C(F)F)o5)cn4)nn3)c2)C1` [Compound 4502, 2-(difluoromethyl)-5-(6-((4-(3-(1-ethylazetidin-3-yl)phenyl)-1H-1,2,3-triazol-1-yl)methyl)pyridin-3-yl)-1,3,4-oxadiazole], for which, at human recombinant HDAC6 (HDAC6 over HDAC1), the “HDAC6 selectivity (fold)” value was found to be 3571 fold. In addition, the IC50 on human recombinant HDAC6 (setting [1]) is 14.2 nM; at human recombinant HDAC1 (setting [2]) it was greater than 50000 nM.

Turning to `CN1CCN(Cc2ccc(-c3cn(Cc4ccc(-c5nnc(C(F)F)o5)cn4)nn3)cc2)CC1` [Compound 4562, 2-(difluoromethyl)-5-(6-((4-(4-((4-methylpiperazin-1-yl)methyl)phenyl)-1H-1,2,3-triazol-1-yl)methyl)pyridin-3-yl)-1,3,4-oxadiazole], the “HDAC6 selectivity (fold)” value on human recombinant HDAC6 (HDAC6 over HDAC1) is 2083 fold. In addition, the IC50 at human recombinant HDAC6 (setting [1]) is 24 nM; at human recombinant HDAC1 (setting [2]) it was greater than 50000 nM.

On to `Fc1cc(-c2nnc(C(F)F)o2)ccc1Cn1cc(-c2cc(C(F)(F)F)cc(C(F)(F)F)c2)nn1` [Compound 3696, 2-(4-((4-(3,5-bis(trifluoromethyl)phenyl)-1H-1,2,3-triazol-1-yl)methyl)-3-fluorophenyl)-5-(difluoromethyl)-1,3,4-oxadiazole], for which the “HDAC6 selectivity (fold)” value on human recombinant HDAC6 (HDAC1 IC50 / HDAC6 IC50) was 52 fold. The IC50 at human recombinant HDAC6 (setting [3]) is 945 nM; at human recombinant HDAC1 (setting [4]) it was greater than 50000 nM.

Take `CCN1CCN(Cc2cccc(-c3cn(Cc4ccc(-c5nnc(C(F)F)o5)cc4F)nn3)c2)CC1` [Compound 4407, 2-(difluoromethyl)-5-(4-((4-(3-((4-ethylpiperazin-1-yl)methyl)phenyl)-1H-1,2,3-triazol-1-yl)methyl)-3-fluorophenyl)-1,3,4-oxadiazole]: on human recombinant HDAC6 (HDAC1 IC50 / HDAC6 IC50), the “HDAC6 selectivity (fold)” value amounted to 1259 fold. For the same compound, the IC50 is 39.7 nM at human recombinant HDAC6 (setting [3]) and greater than 50000 nM on human recombinant HDAC1 (setting [4]).

Consider `CN(C)C1CCN(Cc2ccc(-c3cn(Cc4ccc(-c5nnc(C(F)F)o5)cc4)nn3)cc2)CC1` [Compound 4554, 1-(4-(1-(4-(5-(difluoromethyl)-1,3,4-oxadiazol-2-yl)benzyl)-1H-1,2,3-triazol-4-yl)benzyl)-N,N-dimethylpiperidin-4-amine], for which the “HDAC6 selectivity (fold)” value on human recombinant HDAC6 (HDAC6 over HDAC1) is 773 fold. Besides, the IC50 at human recombinant HDAC6 (setting [1]) was 64.6 nM; on human recombinant HDAC1 (setting [2]) it was greater than 50000 nM.

As to `FC(F)c1nnc(-c2ccc(Cn3cc(-c4ccc(CN5CC6(COC6)C5)cc4)nn3)cc2)o1` [Compound 4551, 6-(4-(1-(4-(5-(difluoromethyl)-1,3,4-oxadiazol-2-yl)benzyl)-1H-1,2,3-triazol-4-yl)benzyl)-2-oxa-6-azaspiro[3.3]heptane], the “HDAC6 selectivity (fold)” value on human recombinant HDAC6 (HDAC6 over HDAC1) is 4761 fold. Further, the IC50 was 10.5 nM at human recombinant HDAC6 (setting [1]) and greater than 50000 nM on human recombinant HDAC1 (setting [2]).

Consider `Fc1cc(-c2nnc(C(F)F)o2)cnc1Cn1cc(-c2ccc3cc[nH]c3c2)nn1` [Compound 18918, 2-(6-((4-(1H-indol-6-yl)-1H-1,2,3-triazol-1-yl)methyl)-5-fluoropyridin-3-yl)-5-(difluoromethyl)-1,3,4-oxadiazole], for which, at human recombinant HDAC6 (HDAC6 over HDAC1), the “HDAC6 selectivity (fold)” value came to 1089 fold. Moreover, the IC50 was 45.9 nM at human recombinant HDAC6 (setting [1]) and greater than 50000 nM on human recombinant HDAC1 (setting [2]).

In the case of `FC(F)c1nnc(-c2ccc(Cn3cc(-c4ccc5[nH]ncc5c4)nn3)nc2)o1` [Compound 4343, 2-(6-((4-(1H-indazol-5-yl)-1H-1,2,3-triazol-1-yl)methyl)pyridin-3-yl)-5-(difluoromethyl)-1,3,4-oxadiazole], on human recombinant HDAC6 (HDAC1 IC50 / HDAC6 IC50), the “HDAC6 selectivity (fold)” value is 5882 fold. Besides, the IC50 at human recombinant HDAC6 (setting [3]) was 8.5 nM; at human recombinant HDAC1 (setting [4]), greater than 50000 nM.

On to `FC(F)c1nnc(-c2ccc(Cn3cc(-c4cnc5[nH]ccc5c4)nn3)cc2)o1` [Compound 4525, 2-(4-((4-(1H-pyrrolo[2,3-b]pyridin-5-yl)-1H-1,2,3-triazol-1-yl)methyl)phenyl)-5-(difluoromethyl)-1,3,4-oxadiazole], for which the “HDAC6 selectivity (fold)” value on human recombinant HDAC6 (HDAC6 over HDAC1) is 5681 fold. The IC50 was 8.8 nM on human recombinant HDAC6 (setting [1]) and greater than 50000 nM at human recombinant HDAC1 (setting [2]).

Consider `FC(F)c1nnc(-c2ccc(Cn3cc(C4(F)CCN(C5COC5)CC4)nn3)nc2)o1` [Compound 4008, 2-(difluoromethyl)-5-(6-((4-(4-fluoro-1-(oxetan-3-yl)piperidin-4-yl)-1H-1,2,3-triazol-1-yl)methyl)pyridin-3-yl)-1,3,4-oxadiazole], for which the “HDAC6 selectivity (fold)” value at human recombinant HDAC6 (HDAC1 IC50 / HDAC6 IC50) amounted to 408 fold. Besides, the IC50 on human recombinant HDAC6 (setting [3]) is 122 nM; at human recombinant HDAC1 (setting [4]) it was greater than 50000 nM.

Consider `O=S1(=O)CCN(Cc2cccc(-c3cn(Cc4ccc(-c5nnc(C(F)F)o5)cc4)nn3)c2)CC1` [Compound 4412, 4-(3-(1-(4-(5-(difluoromethyl)-1,3,4-oxadiazol-2-yl)benzyl)-1H-1,2,3-triazol-4-yl)benzyl)thiomorpholine 1,1-dioxide], for which the “HDAC6 selectivity (fold)” value at human recombinant HDAC6 (HDAC1 IC50 / HDAC6 IC50) came out at 432 fold. The IC50 is 116 nM on human recombinant HDAC6 (setting [3]) and greater than 50000 nM on human recombinant HDAC1 (setting [4]).

With `CCN1CCC(F)(c2cn(Cc3ccc(-c4nnc(C(F)F)o4)cn3)nn2)CC1` [Compound 4006, 2-(difluoromethyl)-5-(6-((4-(1-ethyl-4-fluoropiperidin-4-yl)-1H-1,2,3-triazol-1-yl)methyl)pyridin-3-yl)-1,3,4-oxadiazole], the “HDAC6 selectivity (fold)” value on human recombinant HDAC6 (HDAC1 IC50 / HDAC6 IC50) is on record as 375 fold. Also, the IC50 at human recombinant HDAC6 (setting [3]) is 133 nM; on human recombinant HDAC1 (setting [4]), greater than 50000 nM.

`CC(C)N1CC(N2CCc3cc(-c4cn(Cc5ccc(-c6nnc(C(F)F)o6)cc5F)nn4)ccc3C2)C1` [Compound 4393, 2-(difluoromethyl)-5-(3-fluoro-4-((4-(2-(1-isopropylazetidin-3-yl)-1,2,3,4-tetrahydroisoquinolin-6-yl)-1H-1,2,3-triazol-1-yl)methyl)phenyl)-1,3,4-oxadiazole]: the “HDAC6 selectivity (fold)” value at human recombinant HDAC6 (HDAC1 IC50 / HDAC6 IC50) amounted to 1381 fold. For the same compound, the IC50 was 36.2 nM on human recombinant HDAC6 (setting [3]) and greater than 50000 nM at human recombinant HDAC1 (setting [4]).

`Fc1cc(-c2nnc(C(F)F)o2)ccc1Cn1cc(-c2ccc(CN3CC(F)C3)cc2)nn1` [Compound 4467, 2-(difluoromethyl)-5-(3-fluoro-4-((4-(4-((3-fluoroazetidin-1-yl)methyl)phenyl)-1H-1,2,3-triazol-1-yl)methyl)phenyl)-1,3,4-oxadiazole]: the “HDAC6 selectivity (fold)” value at human recombinant HDAC6 (HDAC1 IC50 / HDAC6 IC50) amounted to 2283 fold. Also, the IC50 at human recombinant HDAC6 (setting [3]) is 21.9 nM; at human recombinant HDAC1 (setting [4]), greater than 50000 nM.

`CCCN1CCC(Nc2ccc(F)c(-c3cn(Cc4ccc(-c5nnc(C(F)F)o5)cc4F)nn3)c2)CC1` [Compound 4438, N-(3-(1-(4-(5-(difluoromethyl)-1,3,4-oxadiazol-2-yl)-2-fluorobenzyl)-1H-1,2,3-triazol-4-yl)-4-fluorophenyl)-1-propylpiperidin-4-amine]: the “HDAC6 selectivity (fold)” value on human recombinant HDAC6 (HDAC1 IC50 / HDAC6 IC50) is listed as 934 fold. In addition, the IC50 on human recombinant HDAC6 (setting [3]) is 53.5 nM; on human recombinant HDAC1 (setting [4]), greater than 50000 nM.

Regarding `CN(C)CC(=O)Nc1cccc(-c2cn(Cc3ccc(-c4nnc(C(F)F)o4)cc3)nn2)c1` [Compound 4329, N-(3-(1-(4-(5-(difluoromethyl)-1,3,4-oxadiazol-2-yl)benzyl)-1H-1,2,3-triazol-4-yl)phenyl)-2-(dimethylamino)acetamide], the “HDAC6 selectivity (fold)” value on human recombinant HDAC6 (HDAC1 IC50 / HDAC6 IC50) is listed as 815 fold. Besides, the results for the IC50 on human recombinant HDAC6 (setting [3]) and on human recombinant HDAC1 (setting [4]) were 61.3 nM and greater than 50000 nM, respectively.

Consider `CC(C)N1CCN(c2cccc(-c3cn(Cc4ccc(-c5nnc(C(F)F)o5)cc4F)nn3)c2F)CC1` [Compound 4578], for which, at human recombinant HDAC6 (HDAC6 over HDAC1), the “HDAC6 selectivity (fold)” value is 1923 fold. The IC50 on human recombinant HDAC6 (setting [1]) was 26 nM; at human recombinant HDAC1 (setting [2]), greater than 50000 nM.
